The text below walks through data of patent US4963363A, “Phospholipid delivery vehicle for aqueous-insoluble active ingredients” (priority 1989, dated 1990).

Counter-ions that a name gives are not always drawn. A value given as a limit tells only on which side of the number the result lay.

For one series, the system named is humans. To be noted: in vivo, iv; cited from earlier work.
A short description of series [1]: Solubility of HXM in pure triglycerides. In kind it is physicochemical. The conditions noted are these: organic solvent or mixture.
The conditions of series [2]: cited from earlier work.
Series [3] is described as follows: Compatibility of lipid triglycerides with HXM solubilization and phospholipid emulsion.

What is called solubility is the dissolved amount per volume that the medium holds.

Consider `CN(C)c1nc(N(C)C)nc(N(C)C)n1` [Gentisate salt of HXM], for which the local irritation entry with humans is “severe local irritation”.
Consider `CN(C)c1nc(N(C)C)nc(N(C)C)n1` [HXM, 2,4,6-Tris(dimethylamino)-s-triazine], for which the solubility in series [1] is greater than 50000 µg/mL. For the same compound, the “solubility of the free drug in saline solution” value in series [2] (saline solution, Wickes et al. 1985) is 70 µg/mL. In addition, the “solubility of the free drug in water” value in series [2] (water, Ames et al. 1982) was 200 µg/mL.
Consider `CCCCCCCC/C=C\CCCCCCCC(=O)OCC(COC(=O)CCCCCCC/C=C\CCCCCCCC)OC(=O)CCCCCCC/C=C\CCCCCCCC` [triolein], for which the “ability of triglyceride to solubilize HXM” value in series [3] was “ineffective at solubilizing HXM”.
